Data from PubChem BioAssay (NCI).
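Test compounds were applied to cells in 96-well plates for 48 hours at 5 doses. GI50: concentration for 50% inhibition of growth. TGI marks complete inhibition of growth.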

How the values were obtained:
Experiment in all cases: NCI-60 cell line screen, 48 h
A498 renal = system: A498 renal
HOP-92 NSCLC = system: HOP-92 NSCLC
HT29 colon = system: HT29 colon
MOLT-4 leukemia = system: MOLT-4 leukemia
NCI-H522 lung = system: NCI-H522 lung
NCI/ADR-RES ovarian = system: NCI/ADR-RES ovarian
OVCAR-3 ovarian = system: OVCAR-3 ovarian
SNB-19 CNS = system: SNB-19 CNS
SNB-75 CNS = system: SNB-75 CNS
RPMI-8226 leukemia = system: RPMI-8226 leukemia

Structure (SMILES) | GI50 (A498 renal) [nM] | TGI (A498 renal) [µM] | GI50 (HOP-92 NSCLC) [nM] | TGI (HOP-92 NSCLC) [µM] | GI50 (HT29 colon) [nM] | TGI (HT29 colon) [µM] | GI50 (MOLT-4 leukemia) [nM] | TGI (MOLT-4 leukemia) [µM] | GI50 (NCI-H522 lung) [nM] | TGI (NCI-H522 lung) [µM] | GI50 (NCI/ADR-RES ovarian) [µM] | TGI (NCI/ADR-RES ovarian) [µM] | GI50 (OVCAR-3 ovarian) [nM] | TGI (OVCAR-3 ovarian) [µM] | GI50 (SNB-19 CNS) [µM] | TGI (SNB-19 CNS) [µM] | GI50 (SNB-75 CNS) [nM] | TGI (SNB-75 CNS) [µM] | TGI (RPMI-8226 leukemia) [µM] | GI50 (RPMI-8226 leukemia) [nM]
COc1cc(-c2nn(-c3cccc(NC(=O)CCN4CCN(Cc5ccccc5)CC4)c3)cc2-c2ccncc2)ccc1Cl | 1410 | 6.71 | 790 | 4.44 | 314 | 1.55 | 1150 | 5.8 | 359 | 1.75 | 0.44 | 2.28 | 395 | 1.77 | 4.42 | 41.2 | 1550 | 8.73 | – | –
O=C(O)CCNS(=O)(=O)c1ccc([N+](=O)[O-])cc1 | – | > 100 | – | > 100 | – | > 100 | – | > 100 | – | > 100 | – | – | – | > 100 | – | > 100 | – | > 100 | > 100 | –
COc1cc(C(=O)Nc2cc(O)c(CC=C(C)C)c(O)c2)cc2c1O[C@]1(C)CC[C@@H](O)C(C)(C)[C@H]1C2 | 147 | 15.7 | – | – | 1900 | 12.3 | 64.1 | 1.38 | 1920 | 14.6 | 29.8 | > 100 | 3830 | 62 | 4.64 | 61.6 | 330 | 17 | 0.816 | 95.9
COc1cc2c(cc1F)C(c1ccccc1Cl)=Nc1c(n[nH]c1C)N2 | 2060 | 9.97 | 1340 | 13.5 | 587 | 8.83 | 5000 | 38.6 | 415 | 20.9 | 0.465 | 29.5 | 597 | 21.6 | 8.69 | 22.3 | 189 | 0.724 | – | –
N#CNc1nc(N)c(-c2ccc(Cl)cc2)c(C(=O)Nc2nccs2)n1 | – | > 100 | – | > 100 | – | > 100 | – | > 100 | – | > 100 | – | – | – | > 100 | – | > 100 | – | > 100 | > 100 | –
COC(=O)C(C(=O)C(=O)Nc1ccc([N+](=O)[O-])cc1)c1nc2ccc([N+](=O)[O-])cc2[nH]c1=O (stereo not given) | – | > 100 | – | > 100 | – | > 100 | – | > 100 | – | > 100 | – | – | – | > 100 | – | > 100 | – | > 100 | – | –
N#CCCNc1nonc1-c1nc2ccccc2n1CC(=O)c1ccc(NC(=O)[C@@H](N)CCCCN)cc1 | 15.4 | 1.89 | 487 | > 100 | 32.6 | > 33.3 | 45.1 | > 100 | 36.3 | > 100 | – | – | 23.5 | 0.0542 | > 100 | > 100 | 10.6 | > 100 | > 100 | 43.4
C[n+]1c2ccccc2nc2c(N)cc(N)cc21 | 69200 | > 100 | 35400 | > 100 | 15300 | > 100 | 3000 | 22.6 | – | – | 83.3 | > 100 | 3690 | 22.8 | 2.9 | 14.4 | 5200 | 18.7 | 33.9 | 4540
N#CCN1C(=O)c2cc([N+](=O)[O-])cc3cc([N+](=O)[O-])cc(c23)C1=O | – | > 100 | – | 32.5 | – | > 69.2 | – | > 22.8 | – | – | – | – | – | 27.1 | – | > 100 | – | 84.8 | > 38.3 | –
O=Cc1ccc2c(c1I)OCO2 | – | > 100 | – | – | – | > 100 | – | > 100 | – | > 100 | – | – | – | > 100 | – | > 100 | – | > 100 | > 100 | –
O=C(/C=C/c1ccc(Cl)c(Cl)c1)c1cccc2ccccc12 | – | 38 | – | 31.4 | – | 12.1 | – | – | – | 10 | – | – | – | 18.6 | – | 19.4 | – | 14 | 8.53 | –
O=C(Cc1nc2ccccc2o1)C(=O)Nc1cccc(C(F)(F)F)c1 | – | > 100 | – | > 100 | – | > 100 | – | > 100 | – | > 100 | – | – | – | > 100 | – | > 100 | – | > 100 | > 100 | –
Cc1cc2c(c(C(N)=O)c1C)-c1cc(Cl)cc(Cl)c1C2=O | – | > 100 | – | > 100 | – | > 100 | – | > 100 | – | > 100 | – | – | – | > 100 | – | > 100 | – | 45.6 | > 100 | –
O=C1OC(=O)c2c1c(-c1ccccc1)nc1ccccc21 | – | > 100 | – | – | – | > 100 | – | > 100 | – | > 100 | – | – | – | > 100 | – | > 100 | – | > 100 | > 100 | –
N[C@H](COCc1ccccc1)c1ccccc1 | – | 88.2 | – | 62 | – | > 93.9 | – | 45.7 | – | 39.1 | – | – | – | > 76.2 | – | > 89.7 | – | 56 | 45.2 | –
CC(C)(C)c1cc2nc(c1)C(C(F)(F)F)(C(F)(F)F)OB(Br)OC2(C(F)(F)F)C(F)(F)F | – | – | – | – | – | 12.1 | – | 0.28 | – | – | – | – | – | – | – | 14.9 | – | 13 | 3.76 | –
CN=C1OC2(c3ccccc3)C3=C(OC(=NC)N2C)C(=O)OC3(c2ccccc2)N1C (stereo not given) | – | > 100 | – | – | – | > 100 | – | > 100 | – | > 100 | – | > 100 | – | > 100 | – | > 100 | – | > 100 | – | –
C=C1[C@@H](O)O[C@H]2[C@H]1C[C@H](OC(C)=O)[C@]13C(=O)O[C@H]4C[C@](C)(O)[C@H]([C@H]41)C31C=C(C)[C@]2(O)O1 | – | – | > 100000 | > 100 | 75400 | > 100 | 80600 | > 100 | 4530 | 21.4 | 28 | 80.8 | 7430 | 32.6 | > 100 | > 100 | – | – | > 100 | 24200
CC(CO)(Nc1ccc([N+](=O)[O-])cc1[N+](=O)[O-])C(=O)O (stereo not given) | – | – | – | – | – | 30.4 | – | – | – | 39 | – | > 100 | – | 42 | – | > 100 | – | – | > 100 | –
